# System: P388
# Assay: Cytotoxicity against mouse P388 cells by MTT assay
# Type: functional
# Details: read-out: ED50 (the source's name)
row,SMILES,EC50 [µg/mL]
1,C=C1CC[C@H](C(C)C)[C@@H]2[C@H]1[C@@H]1CC(=C)[C@@H](O)CC[C@](C)(O)[C@H]2O1 [CLADIELLISIN],2
2,C=C1CC[C@H](C(C)C)[C@@H]2[C@H]1[C@H]1C[C@](C)(O)[C@@H](O)CC[C@@](C)(O)[C@@H]2O1 [SCLEROPHYTIN A],2.3
3,CC(=O)OC(C)(C)[C@H]1C=C2[C@@H](C)CC[C@@H](O)[C@]2(C)CC1 [JUNCEOL A],5.1
